Where two headings read alike, the source gives them in different places.
What was measured:
BCLXL = BCLXL (Homo sapiens, UniProt Q07817); assay: BCLXL affinity assay (competition binding, qPCR readout); conditions: recombinant BCLXL, 11-point 3-fold dilution series
Description: (§1) Recombinant MCL1, BCL2 and BCXL proteins were prepared in either an E. coli host derived from the BL21 strain or in HEK-293 cells. The recombinant proteins were subsequently tagged with DNA for qPCR detection. Streptavidin-coated magnetic beads were treated for 30 minutes at room temperature with the respective biotinylated peptide ligands for each recombinant protein to generate affinity resins for the assays. The liganded beads were blocked with excess biotin and washed with blocking buffer (SeaBlock (Pierce), 1% BSA, 0.05% Tween 20, 1 mM DTT) to remove unbound ligand and to reduce nonspecific binding. Binding reactions were assembled by combining recombinant protein, liganded affinity beads, and test compounds in 1× binding buffer (20% SeaBlock, 0.17×PBS, 0.05% Tween 20, 6 mM DTT). Test compounds were prepared as 111X stocks in 100% DMSO. The compounds were then diluted directly into the assays such that the final concentration of DMSO was 0.9%. The assay plates were incubated at room temperature with shaking for 1 hour and the affinity beads were washed with wash buffer (1×PBS, 0.05% Tween 20). The beads were then re-suspended in elution buffer (1×PBS, 0.05% Tween 20, 0.5 μM non-biotinylated affinity ligand) and incubated at room temperature with shaking for 30 minutes. The recombinant protein concentration in the eluates was measured by qPCR. Kds were determined using an 11-point 3-fold compound dilution series with three DMSO control points.

MCL1 = MCL1 (Homo sapiens, UniProt Q07820); assay: MCL1 affinity assay (competition binding, qPCR readout); conditions: recombinant MCL1, 11-point 3-fold dilution series
Method in brief: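 Kds derived from an 11-point 3-fold compound series measured by qPCR of protein eluted from ligand beads. Recombinant, DNA-tagged protein from E. coli or HEK-293 was mixed with compound and peptide-liganded beads in SeaBlock/PBS/Tween/DTT buffer for 1 hour at room temperature (0.9% DMSO).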

[1] = system: drug-resistant cell lines of Table 3; assay: Cell line growth retardation assay, resistant cohort; assay type: cell-based, Human; conditions: arithmetic mean of IC50s over the resistant cohort of Table 3, 6 days growth, read-out: AvgRes IC50
Method in brief: (§2)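 Over 6 days of treatment at six concentrations (0.0032–10 μM), given after a 24 h post-seeding rest, population doublings were counted by imaging against a pre-dose baseline and compared with vehicle. Per-line IC50 values came from dose-response fits; cohort averages used arithmetic means, with sensitive/resistant grouping based on response to reference MCL1 inhibitors.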

BCL2 = BCL2 (Homo sapiens, UniProt P10415); assay: BCL2 affinity assay (competition binding, qPCR readout); conditions: recombinant BCL2, 11-point 3-fold dilution series
Description: as §1

[2] = system: drug-sensitive cell lines of Table 3; assay: Cell line growth retardation assay, sensitive cohort; assay type: cell-based, Human; conditions: for IC50: arithmetic mean of IC50s over the sensitive cohort of Table 3, 6 days growth, read-out: AvgSen IC50; for Fold Diff: average IC50 of resistant cohort divided by average IC50 of sensitive cohort
Method in brief: as §2

BCLXL, sequence (Q07817 whole entry): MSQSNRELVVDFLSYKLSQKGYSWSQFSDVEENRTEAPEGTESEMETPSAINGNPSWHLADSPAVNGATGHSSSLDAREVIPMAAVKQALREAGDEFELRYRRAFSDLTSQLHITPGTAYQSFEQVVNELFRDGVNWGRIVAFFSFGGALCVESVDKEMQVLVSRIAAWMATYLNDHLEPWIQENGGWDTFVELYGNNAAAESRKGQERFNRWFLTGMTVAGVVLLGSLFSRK
MCL1, sequence (Q07820 whole entry): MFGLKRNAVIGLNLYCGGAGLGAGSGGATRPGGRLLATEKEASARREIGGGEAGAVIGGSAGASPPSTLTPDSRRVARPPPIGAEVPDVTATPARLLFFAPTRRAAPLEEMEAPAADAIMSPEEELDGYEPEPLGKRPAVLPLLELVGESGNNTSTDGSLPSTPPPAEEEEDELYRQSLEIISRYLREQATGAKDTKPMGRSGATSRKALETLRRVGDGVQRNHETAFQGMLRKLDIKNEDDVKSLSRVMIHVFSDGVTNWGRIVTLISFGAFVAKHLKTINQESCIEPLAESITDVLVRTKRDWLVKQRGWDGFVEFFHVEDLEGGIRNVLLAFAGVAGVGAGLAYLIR
BCL2, sequence (P10415 whole entry): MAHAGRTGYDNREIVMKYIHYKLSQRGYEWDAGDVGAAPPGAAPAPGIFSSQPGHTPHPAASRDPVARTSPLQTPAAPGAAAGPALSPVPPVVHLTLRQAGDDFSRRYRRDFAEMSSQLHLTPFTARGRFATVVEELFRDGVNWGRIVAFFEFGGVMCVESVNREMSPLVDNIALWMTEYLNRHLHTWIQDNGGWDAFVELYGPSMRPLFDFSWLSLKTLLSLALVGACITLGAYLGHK

| Kd (BCLXL) | Kd (MCL1) | Kd (BCL2) | Structure (SMILES) | IC50 ([1]; Homo sapiens, 144 h) | IC50 [2] | Fold Diff [2] | IC50 ([2]; Homo sapiens, 144 h) | IC50 [1] |
| --- | --- | --- | --- | --- | --- | --- | --- | --- |
| > 1500 nM | 101 to 500 nM | > 1500 nM | Cc1c(-c2c(-c3ccc(F)cc3)ncc3snc(O[C@H](Cc4ccccc4OCc4ccnn4CC(F)(F)F)C(=O)O)c23)ccc(OCCN2CCN(C)CC2)c1Cl (single isomer, unassigned) [Compound 6] | > 5000 nM | 1000 to 5000 nM | − (“−” represents a fold difference less than 10) | – | – |
| > 1500 nM | ≤ 100 nM | > 1500 nM | Cc1c(-c2c(C3CC3)ncc3snc(O[C@H](Cc4ccccc4OCc4ccnn4CC(F)(F)F)C(=O)O)c23)ccc(OCCN2CCN(C)CC2)c1Cl (atropisomer, axis not shown) [Compound 30] | > 5000 nM | – | − (“−” represents a fold difference less than 10) | 1000 to 5000 nM | – |
| > 1500 nM | ≤ 100 nM | > 1500 nM | COc1cccc(-c2ncc3snc(O[C@H](Cc4ccccc4OCc4ccnc(-c5ccccc5OC)n4)C(=O)O)c3c2-c2ccc(OC[C@@H]3CCCN3C)c(Cl)c2C)c1 (atropisomer, axis not shown) [Compound 49] | – | 1000 to 5000 nM | − (“−” represents a fold difference less than 10) | – | > 5000 nM |
| > 1500 nM | ≤ 100 nM | > 1500 nM | COc1cccc(-c2ncc3snc(O[C@H](Cc4ccccc4OCc4ccnc(-c5ccccc5OC)n4)C(=O)O)c3c2-c2ccc(OCCN(C)C)c(Cl)c2C)c1 (atropisomer, axis not shown) [Compound 46] | > 5000 nM | – | + (“+” represents a fold difference of 10 or more) | ≤ 1000 nM | – |
| > 1500 nM | ≤ 100 nM | > 1500 nM | COc1cccc(-c2ncc3snc(O[C@H](Cc4ccccc4OCc4ccnc(-c5ccccc5OC)n4)C(=O)O)c3c2-c2ccc(OC)c(Cl)c2C)c1 (atropisomer, axis not shown) [Compound 51] | > 5000 nM | – | − (“−” represents a fold difference less than 10) | 1000 to 5000 nM | – |
| > 1500 nM | 101 to 500 nM | > 1500 nM | COc1cccc(-c2ncc3snc(O[C@H](Cc4ccccc4OCc4ccnn4CC(F)(F)F)C(=O)O)c3c2-c2ccc(OCCN3CCN(C)CC3)c(Cl)c2C)c1 (atropisomer, axis not shown) [Compound 23] | > 5000 nM | – | + (“+” represents a fold difference of 10 or more) | ≤ 1000 nM | – |
| > 1500 nM | > 1500 nM | > 1500 nM | Cc1c(-c2c(-c3cccc4[nH]c(C(F)(F)F)cc34)ncc3snc(O[C@H](Cc4ccccc4OCc4ccnn4CC(F)(F)F)C(=O)O)c23)ccc(OCCN2CCN(C)CC2)c1Cl (atropisomer, axis not shown) [Compound 16] | > 5000 nM | – | − (“−” represents a fold difference less than 10) | > 5000 nM | – |
| > 1500 nM | > 1500 nM | > 1500 nM | Cc1c(-c2c(-c3cccc4ccsc34)ncc3snc(O[C@H](Cc4ccccc4OCc4ccnn4CC(F)(F)F)C(=O)O)c23)ccc(OCCN2CCN(C)CC2)c1Cl (atropisomer, axis not shown) [Compound 24] | > 5000 nM | – | − (“−” represents a fold difference less than 10) | 1000 to 5000 nM | – |
| > 1500 nM | > 1500 nM | > 1500 nM | Cc1c(-c2c(Cl)ncc3snc(O[C@H](Cc4ccccc4OCc4ccnn4CC(F)(F)F)C(=O)O)c23)ccc(OCCN2CCN(C)CC2)c1Cl (single isomer, unassigned) [Compound 3] | > 5000 nM | – | − (“−” represents a fold difference less than 10) | > 5000 nM | – |
| > 1500 nM | > 1500 nM | > 1500 nM | Cc1c(-c2c(-c3ccc4c(ccn4C)c3)ncc3snc(O[C@H](Cc4ccccc4OCc4ccnn4CC(F)(F)F)C(=O)O)c23)ccc(OCCN2CCN(C)CC2)c1Cl (atropisomer, axis not shown) [Compound 10] | > 5000 nM | – | − (“−” represents a fold difference less than 10) | > 5000 nM | – |
| > 1500 nM | ≤ 100 nM | > 1500 nM | Cc1c(-c2c(C3CCC3)ncc3snc(O[C@H](Cc4ccccc4OCc4ccnn4CC(F)(F)F)C(=O)O)c23)ccc(OCCN2CCN(C)CC2)c1Cl (atropisomer, axis not shown) [Compound 29] | > 5000 nM | – | + (“+” represents a fold difference of 10 or more) | ≤ 1000 nM | – |
| > 1500 nM | ≤ 100 nM | > 1500 nM | COc1cccc(-c2ncc3snc(O[C@H](Cc4ccccc4OCc4ccnc(-c5ccccc5OC)n4)C(=O)O)c3c2-c2ccc(OC[C@H]3CCCN3C)c(Cl)c2C)c1 (atropisomer, axis not shown) [Compound 48] | – | – | – | – | – |
| > 1500 nM | 501 to 1500 nM | > 1500 nM | Cc1c(-c2c(-c3cnn(C)c3)ncc3snc(O[C@H](Cc4ccccc4OCc4ccnn4CC(F)(F)F)C(=O)O)c23)ccc(OCCN2CCN(C)CC2)c1Cl (atropisomer, axis not shown) [Compound 28] | – | – | – | – | – |
| – | 101 to 500 nM | – | COc1ncccc1-c1nccc(COc2ccccc2C[C@@H](Oc2nsc3cnc(-c4cccc(F)c4)c(-c4ccc(OCCN5CCN(C)CC5)c(Cl)c4C)c23)C(=O)O)n1 (atropisomer, axis not shown) [Compound 64] | > 5000 nM | – | − (“−” represents a fold difference less than 10) | > 5000 nM | – |
| – | ≤ 100 nM | – | COc1ccccc1-c1nccc(COc2ccccc2C[C@@H](Oc2nsc3cnc(C4CCC4)c(-c4ccc(OCCN5CCOCC5)c(Cl)c4C)c23)C(=O)O)n1 (atropisomer, axis not shown) [Compound 108] | > 5000 nM | – | − (“−” represents a fold difference less than 10) | 1000 to 5000 nM | – |
| – | ≤ 100 nM | – | Cc1c(-c2c(C3CCC3)ncc3snc(O[C@H](Cc4ccccc4OCc4ccnc(-c5cccc(S(C)(=O)=O)c5)n4)C(=O)O)c23)ccc(OCCN2CCN(C)CC2)c1Cl (atropisomer, axis not shown) [Compound 118] | > 5000 nM | – | − (“−” represents a fold difference less than 10) | 1000 to 5000 nM | – |
| – | ≤ 100 nM | – | COc1ccccc1-c1nccc(COc2ccccc2C[C@@H](Oc2nsc3cnc(-c4cccc(C#N)c4)c(-c4ccc(OCCN5CCN(C)CC5)c(Cl)c4C)c23)C(=O)O)n1 (atropisomer, axis not shown) [Compound 80] | > 5000 nM | – | + (“+” represents a fold difference of 10 or more) | ≤ 1000 nM | – |
| – | ≤ 100 nM | – | COc1ccccc1-c1nccc(COc2ccccc2C[C@@H](Oc2nsc3cnc(-c4cnc(C)o4)c(-c4ccc(OCCN5CCN(C)CC5)c(Cl)c4C)c23)C(=O)O)n1 (atropisomer, axis not shown) [Compound 77] | > 5000 nM | – | − (“−” represents a fold difference less than 10) | 1000 to 5000 nM | – |
| – | 101 to 500 nM | – | COc1cccc(-c2ncc3snc(O[C@H](Cc4ccccc4OCc4ccnc(OCCCC(F)(F)F)n4)C(=O)O)c3c2-c2ccc(OCCN3CCN(C)CC3)c(Cl)c2C)c1 [Compound 59] | > 5000 nM | – | − (“−” represents a fold difference less than 10) | 1000 to 5000 nM | – |
| – | 101 to 500 nM | – | Cc1c(-c2c(C3CCC3)ncc3snc(O[C@H](Cc4ccccc4OCc4ccnc(C5CCC5)n4)C(=O)O)c23)ccc(OCCN2CCN(C)CC2)c1Cl (atropisomer, axis not shown) [Compound 104] | > 5000 nM | – | − (“−” represents a fold difference less than 10) | 1000 to 5000 nM | – |
| – | ≤ 100 nM | – | COc1ccccc1-c1nccc(COc2ccccc2C[C@@H](Oc2nsc3cnc(-c4ccn(CC(C)C)n4)c(-c4ccc(OCCN5CCN(C)CC5)c(Cl)c4C)c23)C(=O)O)n1 (atropisomer, axis not shown) [Compound 38] | > 5000 nM | – | + (“+” represents a fold difference of 10 or more) | ≤ 1000 nM | – |
